Assay results taken from patent US8455497B2, “Inhibitors of aspartyl protease” (Vertex Pharmaceuticals Incorporated, priority 1999, dated 2013).
Like-named read-outs stand apart in the source and are kept apart here.

Legend:
[1] = tested on: EP13 multi protease inhibitor resistant virus; assay: Anti-viral activity against resistant virus EP13 in MT4 cells; assay type: cell-based, HIV-1
Outline: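 MT4 cells infected for 1 h at 37 °C, MOI 100×TCID50, then diluted 6-fold onto pre-diluted compound and cultured 5 days (5% CO2). Viable-cell DNA content estimated by propidium iodide. EP13 carries protease mutations M46I, L63P, A71V, V82F/L, I84V, no RT mutations.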

[2] = tested on: D545701-14 multi protease inhibitor resistant virus; assay: Anti-viral activity against resistant virus D545701-14 in MT4 cells; assay type: cell-based, HIV-1
[3] = tested on: HIV-1 (strain IIIB); assay: Antiviral activity assay in MT4 cells (propidium iodide based); assay type: cell-based; details: wild type HIV-1 virus, MT4 cells, read-out: Wildtype virus - IC50
Outline: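 MT4 cells infected with HIV-1 IIIB (MOI 100×TCID50, 1 hr, 37°C), diluted 6-fold into wells with serially diluted compound, incubated 5 days. Cells lysed with Nonidet-40; DNA content per well estimated by propidium iodide staining as the viability read-out, with mock-infected controls.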

[4] = Human immunodeficiency virus 1, MT4, read-out: EP13 mutant IC50, EP13 multi protease inhibitor resistant virus, MT4 cells
[5] = Human immunodeficiency virus 1, MT4, read-out: D545701-14 mutant - IC50, D545701-14 multi protease inhibitor resistant virus, MT4 cells
[6] = Human immunodeficiency virus 1, IIIB
[7] = EP13 multi protease inhibitor resistant virus, MT4 cells, read-out: EP13 mutant IC50
[8] = D545701-14 multi protease inhibitor resistant virus, MT4 cells, read-out: D545701-14 mutant - IC50

Row | Structure (SMILES) | IC50 [1, 4] | IC50 [2, 5] | IC50 [3, 6] | other results
1 | CC(C)CN(C[C@@H](O)[C@H](Cc1ccc(OCCc2ccccc2)cc1)NC(=O)O[C@H]1CO[C@H]2OCC[C@H]21)S(=O)(=O)c1ccc2c(c1)OCO2 [Compound 352, (3R,3aS,6aR)hexahydrofuro[2,3-b]furan-3-yl (1S,2R)-3[(1,3-benzodioxol-5-ylsulfonyl)(isobutyl)amino]-2-hydroxy-1-[4-(phenethyloxy)benzyl]propylcarbamate] | < 1 nM | 1 to 10 nM | < 1 nM | –
2 | CC(C)CN(C[C@@H](O)[C@H](Cc1ccc(OCc2cccc(C#N)c2)cc1)NC(=O)O[C@H]1CO[C@H]2OCC[C@H]21)S(=O)(=O)c1ccc2c(c1)OC(F)(F)O2 [Compound 342, (3R,3aS,6aR)-hexahydrofuro[2,3-b]furan-3-yl (1S,2R)-1-{4-[(3-cyanobenzyl)oxy]benzyl}-3-[[(2,2-difluoro-1,3-benzodioxol-5-yl)sulfonyl](isobutyl)amino]-2-hydroxypropylcarbamate] | 10 to 100 nM | 10 to 100 nM | 10 to 100 nM | –
3 | CC(C)CN(C[C@@H](O)[C@H](Cc1ccc(OCCCNS(C)(=O)=O)cc1)NC(=O)O[C@H]1CO[C@H]2OCC[C@H]21)S(=O)(=O)c1ccc2c(c1)OCO2 [Compound 251] | – | – | – | IC50 [1, 7]: 1 to 10 nM; IC50 [2, 8]: 1 to 10 nM; IC50 [3]: 10 to 100 nM
4 | CC(C)CN(C[C@@H](O)[C@H](Cc1ccc(OCCCc2ccccc2)cc1)NC(=O)O[C@H]1CO[C@H]2OCC[C@H]21)S(=O)(=O)c1ccc2c(c1)OCO2 [Compound 203, (3R,3aS,6aR)hexahydrofuro[2,3-b]furan-3-yl (1S,2R)-3-[(1,3-benzodioxol-5-ylsulfonyl)(isobutyl)amino]-2-hydroxy-1-[4-([3-phenylpropyl]oxy)benzyl]propylcarbamate] | 1 to 10 nM | – | < 1 nM | IC50 ([2]; read-out: D545701-14 mutant - IC50, D545701-14 multi protease inhibitor resistant virus, MT4 cells): 10 to 100 nM
5 | CC(C)CN(C[C@@H](O)[C@H](Cc1ccc(OCCCCO)cc1)NC(=O)O[C@H]1CO[C@H]2OCC[C@H]21)S(=O)(=O)c1ccc2c(c1)OCO2 [Compound 317, (3R,3aS,6aR)-Hexahydrofuro[2,3-b]furan-3-yl (1S,2R)-3-[(1,3-benzodioxol-5-ylsulfonyl)(isobutyl)amino]-2-hydroxy-1-[4-(4-hydroxybutoxy)benzyl]propylcarbamate] | 1 to 10 nM | 1 to 10 nM | 1 to 10 nM | –
6 | COCCNCCCOc1ccc(C[C@H](NC(=O)O[C@H]2CO[C@H]3OCC[C@H]32)[C@H](O)CN(CC(C)C)S(=O)(=O)c2ccc3c(c2)OCO3)cc1 [Compound 283, (3R,3aS,6aR)-hexahydrofuro[2,3-b]furan-3-yl (1S,2R)-3-[(1,3-benzodioxol-5-ylsulfonyl)(isobutyl)amino]-2-hydroxy-1-(4-{3-[(2-methoxyethyl)amino]propoxy}benzyl) propylcarbamate] | 1 to 10 nM | 10 to 100 nM | 10 to 100 nM | –
7 | CC(C)CN(C[C@@H](O)[C@H](Cc1ccc(OCc2cccc(C#N)c2)cc1)NC(=O)O[C@H]1CO[C@H]2OCC[C@H]21)S(=O)(=O)c1ccc2c(c1)OCCO2 [Compound 338, (3R,3aS,6aR)-hexahydrofuro[2,3-b]furan-3-yl (1S,2R)-1-{4-[(3-cyanobenzyl)oxy]benzyl}-3-[(2,3-dihydro-1,4-benzodioxin-6-ylsulfonyl)(isobutyl)amino]-2-hydroxypropylcarbamate] | 1 to 10 nM | 1 to 10 nM | 1 to 10 nM | –
8 | CC(=O)Oc1ccc(S(=O)(=O)N(CC(C)C)C[C@@H](O)[C@H](Cc2ccc(OCc3csc(C)n3)cc2)NC(=O)O[C@H]2CO[C@H]3OCC[C@H]32)cc1C [Compound 347, 4-{[((2R,3S)-3-({[(3R,3aS,6aR)-hexahydrofuro[2,3-b]furan-3-yloxy]carbonyl}amino)-2-hydroxy-4-{4-[(2-methyl-1,3-thiazol-4-yl)methoxy]phenyl}butyl)(isobutyl)amino]sulfonyl}-2-methylphenyl acetate] | 1 to 10 nM | 1 to 10 nM | 1 to 10 nM | –
9 | CC(C)CN(C[C@@H](O)[C@H](Cc1ccc(OCCc2ccc(F)cc2)cc1)NC(=O)O[C@H]1CO[C@H]2OCC[C@H]21)S(=O)(=O)c1ccc2c(c1)OCO2 [Compound 205] | – | – | – | IC50 [1, 7]: 10 to 100 nM; IC50 [2, 8]: 10 to 100 nM; IC50 [3]: 1 to 10 nM
10 | CC(C)CN(C[C@@H](O)[C@H](Cc1ccc(OC(=N)N(C)C)cc1)NC(=O)O[C@H]1CO[C@H]2OCC[C@H]21)S(=O)(=O)c1ccc2c(c1)OCO2 [Compound 331, (3R,3aS,6aR)-Hexahydrofuro[2,3-b]furan-3-yl (1S,2R)-3-[(1,3-benzodioxol-5-ylsulfonyl)(isobutyl)amino]-1-{4-[(dimethylamino) (imino)methoxy]benzyl}-2-hydroxypropylcarbamate] | 10 to 100 nM | 10 to 100 nM | 10 to 100 nM | –
11 | CC(C)CN(CC(O)[C@H](Cc1ccc(OCc2ccccn2)cc1)NC(=O)O[C@H]1CO[C@H]2OCC[C@H]21)S(=O)(=O)c1ccc2c(c1)OCCO2 (stereo in doubt) [Compound 337, (3R,3aS,6aR)-hexahydrofuro[2,3-b]furan-3-yl (1S,2S)-3-[(2,3-dihydro-1,4-benzodioxin-6-ylsulfonyl)(isobutyl)amino]-2-hydroxy-1-[4-(2-pyridinylmethoxy)benzyl]propylcarbamate] | 1 to 10 nM | 1 to 10 nM | 1 to 10 nM | –
12 | CC(C)CN(C[C@@H](O)[C@H](Cc1ccc(OCCCC(F)(F)F)cc1)NC(=O)O[C@H]1CO[C@H]2OCC[C@H]21)S(=O)(=O)c1ccc2c(c1)OCCO2 [Compound 204, (3R,3aS,6aR)-hexahydrofuro[2,3-b]furan-3-yl (1S,2R)-3-[(2,3-dihydro-1,4-benzodioxin-6-ylsulfonyl)(isobutyl)amino]-2-hydroxy-1-[4-(4,4,4-trifluorobutoxy)benzyl]propylcarbamate] | 1 to 10 nM | 1 to 10 nM | 1 to 10 nM | –
13 | CC(C)CN(C[C@@H](O)[C@H](Cc1ccc(OCc2cccc(C#N)c2)cc1)NC(=O)O[C@H]1CO[C@H]2OCC[C@H]21)S(=O)(=O)c1cccc(N)c1 [Compound 289] | 1 to 10 nM | 1 to 10 nM | 1 to 10 nM | –
14 | CC(C)CN(C[C@@H](O)[C@H](Cc1ccc(OCCN2CCSC2)cc1)NC(=O)O[C@H]1CO[C@H]2OCC[C@H]21)S(=O)(=O)c1ccc2c(c1)OCO2 [Compound 324, (3R,3aS,6aR)-Hexahydrofuro[2,3-b]furan-3-yl (1S,2R)-3-[(1,3-benzodioxol-5-ylsulfonyl)(isobutyl)amino]-2-hydroxy-1-{4-[2-(1,3-thiazolidin-3-yl)ethoxy]benzyl}propylcarbamate] | 1 to 10 nM | 1 to 10 nM | 1 to 10 nM | –
15 | CC(C)CN(C[C@@H](O)[C@H](Cc1ccc(OCc2csc3ccccc23)cc1)NC(=O)O[C@H]1CO[C@H]2OCC[C@H]21)S(=O)(=O)c1ccc2c(c1)OCO2 [Compound 387, (3R,3aS,6aR)-hexahydrofuro[2,3-b]furan-3-yl (1S,2R)-3-[(1,3-benzodioxol-5-ylsulfonyl)(isobutyl)amino]-1-[4-(1-benzothien-3-ylmethoxy)benzyl]-2-hydroxypropylcarbamate] | 1 to 10 nM | 1 to 10 nM | 1 to 10 nM | –
16 | CC(C)CN(C[C@@H](O)[C@H](Cc1ccc(OCCNS(C)(=O)=O)cc1)NC(=O)O[C@H]1CO[C@H]2OCC[C@H]21)S(=O)(=O)c1ccc2c(c1)OCO2 [Compound 357, (3R,3aS,6aR)hexahydrofuro[2,3-b]furan-3-yl (1S,2R)-3-[(1,3-benzodioxol-5-ylsulfonyl)(isobutyl)amino]-2-hydroxy-1-[4-(2-[(methylsulfonyl)amino]ethoxy)benzyl]propylcarbamate] | – | – | 10 to 100 nM | IC50 ([1]; Human immunodeficiency virus 1, MT4, read-out: EP13 mutant IC50): 1 to 10 nM; IC50 ([2]; Human immunodeficiency virus 1, MT4, read-out: D545701-14 mutant - IC50): 10 to 100 nM
17 | CC(C)CN(C[C@@H](O)[C@H](Cc1ccc(OCC(N)=O)cc1)NC(=O)O[C@H]1CO[C@H]2OCC[C@H]21)S(=O)(=O)c1ccc2c(c1)OCO2 [Compound 314, (3R,3aS,6aR)-Hexahydrofuro[2,3-b]furan-3-yl (1S,2R)-1-[4-(2-amino-2-oxoethoxy)benzyl]-3-[(1,3-benzodioxol-5-ylsulfonyl)(isobutyl)amino]-2-hydroxypropylcarbamate] | 10 to 100 nM | 10 to 100 nM | 10 to 100 nM | –
18 | CC(C)CN(C[C@@H](O)[C@H](Cc1ccc(OCCCNc2ncccn2)cc1)NC(=O)OC1CO[C@H]2OCC[C@@H]12)S(=O)(=O)c1ccc2c(c1)OCO2 (stereo in doubt) [Compound 271, (3R,3aS,6aR)-hexahydrofuro[2,3-b]furan-3-yl (1S,2R)-3-[(1,3-benzodioxol-5-ylsulfonyl)(isobutyl)amino]-2-hydroxy-1-{4-[3-(2-pyrimidinylamino)propoxy]benzyl}propylcarbamate] | 1 to 10 nM | 1 to 10 nM | 1 to 10 nM | –
